# Test results published in patent US20200054671A1, “TREATMENT OF ANXIETY DISORDER AND AUGMENTATION OF ANTI-ANXIETY INTERVENTIONS BY ADMINISTRATION OF NOBLE GAS CONTAINING MIXTURES” (NOBILIS THERAPEUTICS, INC., priority 2016, published 2020).
# “And” between values parts separate entries of the source, which are not always exact repeats. Identical values can stand only once.
# Tests used:
# [1] = cited from earlier work
# [2] = system: patients with panic disorder; experiment: Hospital Anxiety and Depression Scale, depression subscale (HADS_D); format: in vivo, human; details: for HADS_D: patients with “clinically severe depression”: end of the active phase of treatment
# Experimental: (§1) This investigator-initiated study was performed under a prospective clinical trial protocol approved by the Institute of Mental Health and Addictology, which is accredited by the Ministry of Health of the Russian Federation to conduct clinical trials (#57689). Study conduct was in compliance with all ethical standards and good clinical practice. Ninety outpatients with a diagnosis of “panic disorder» (F41.0) according to ICD-10 were enrolled through the Institute of Mental Health and Addictology. Five patients dropped out of the study due to minor side effects, predominantly lightheadedness and headaches, and 4 patients dropped out of the study for unspecified reasons. As the intention to treat analysis was not utilized due to the open label design of the study, 81 patients with PD (49 women and 32 men), mean age was 35.2 years (range […]) were studied. Patients were randomized into 2 groups: with “pure” PD (group 1) and “comorbid” PD, when it was co-diagnosed with other mental illnesses (group 2). All patients with isolated PD (Group 1, n=42) received monotherapy with xenon at the aforementioned schedule, while the majority of patients (94.9%) with PD and comorbid conditions, which were predominantly depression (group 2, n=39), in addition to xenon administration continued treatment for comorbid psychiatric disorders, which mainly consisted of antidepressants (SSRIs and SNRIs). In these patients, the reason for xenon treatment was the increase in the frequency and severity of panic attacks despite ongoing treatment with stable pharmacotherapy of at least 3 to 6 months' duration.
# (§2) Administration of xenon was performed through inhalation of xenon-oxygen mixtures that were escalated from 15%/85% to 30%/70% with titration increments of 5% per session. Each patient in the study underwent between 6 and 7 treatments with xenon-oxygen mixture. The first three sessions were carried out daily and from session 4 onward—every other day. The selected dosing regime and the composition of the gas mixtures were based on the historical evidence of safety of subanesthetic use of xenon in imaging.
# (§3) Medical grade xenon (“medksenon»®, 99.9999%, manufacturer: Atommedcenter, Moscow, Russia) and medical grade oxygen in separate containers were admixed. […] The patients were assessed subjectively by the provider, while the vital signs (pulse, blood pressure, oxygen saturation) were continuously monitored.
# Patients were evaluated after each xenon inhalation and at 30 and 180 days after completion of treatment. […]
# [3] = system: patients with panic disorder; experiment: Frequency of major and minor panic attacks; format: in vivo, human; details: for The frequency of major panic attacks 6 months after treatment, Mean / The frequency of major panic attacks 6 months after treatment, Median / Changes Minor Panic Attacs_V6_V1, Mean / Changes Minor Panic Attacs_V6_V1, Median / Changes_Major Panic Attacs_V6_V1, Mean / Changes_Major Panic Attacs_V6_V1, Median: per month; for Changes Minor Panic Attacs_V6_V1, Mean / Changes Minor Panic Attacs_V6_V1, Median / Changes_Major Panic Attacs_V6_V1, Mean / Changes_Major Panic Attacs_V6_V1, Median: vs before treatment
# Experimental: as §1, §2
# (§4) Medical grade xenon (“medksenon»®, 99.9999%, manufacturer: Atommedcenter, Moscow, Russia) and medical grade oxygen in separate containers were admixed. Mixing and administration of gases in preset concentration and volume was accomplished with the use of the medical device MAGi-AMTS1, which enables the operator to adjust the concentration of xenon in the gas mixture, and which contains the electronic flow meter with a software module that allows for such adjustments. Administration of xenon-oxygen mixture to the patient was carried out via a face mask. Patients were asked to slowly inhale, holding breath for 5 to 10 seconds; exhale into the loop and after 35-40 seconds exhale outside the contour and breath in the new portion of gas mixture. Xenon inhalation lasted from 2.5 to 4 minutes, and the xenon consumption was capped at 3.0 liters per procedure. The patients were assessed subjectively by the provider, while the vital signs (pulse, blood pressure, oxygen saturation) were continuously monitored.
# (§5) Patients were evaluated after each xenon inhalation and at 30 and 180 days after completion of treatment. To this end, we employed clinical psychopathological and clinical catamnestic methods, and psychometric scales that are widely used internationally to assess the treatment of mental disorders. Scale Assessment, Zung Self-Rating Anxiety Scale (SAS) was performed prior to starting therapy (V1), and at 1 and 6 months after treatment. According to this scale, SAS index of less than 45 points corresponds to the normal value, 45-59—to mild-to-moderate degree of anxiety, 60-74—to high degree of anxiety, more than 75—to an extremely high-level of anxiety. […]
# [4] = system: patients with panic disorder; experiment: Tolerability of xenon therapy in the clinical trial; format: in vivo, human; details: mainly headache and dizziness
# Experimental: This investigator-initiated study was performed under a prospective clinical trial protocol approved by the Institute of Mental Health and Addictology, which is accredited by the Ministry of Health of the Russian Federation to conduct clinical trials (#57689). Study conduct was in compliance with all ethical standards and good clinical practice. Ninety outpatients with a diagnosis of “panic disorder» (F41.0) according to ICD-10 were enrolled through the Institute of Mental Health and Addictology. Five patients dropped out of the study due to minor side effects, predominantly lightheadedness and headaches, and 4 patients dropped out of the study for unspecified reasons. As the intention to treat analysis was not utilized due to the open label design of the study, 81 patients with PD (49 women and 32 men), mean age was 35.2 years (range […]) were studied. Patients were randomized into 2 groups: with “pure” PD (group 1) and “comorbid” PD, when it was co-diagnosed with other mental illnesses (group 2). […]
# as §3
# [5] = system: patients with panic disorder; experiment: Clinical Global Impression Scale, improvement subscale (CGI-I); format: in vivo, human; details: Total (n = 81)
# Experimental: as §1, §2, §4, §5
smiles,measurement,setting,value
[Xe] [xenon],time at which end-expiratory xenon concentration reached a plateau,[1]; during inhalational anesthesia,7 min
same,time to successful loading of xenon in the brain,[1]; during inhalational anesthesia,approximately 15 minutes
same,half-time for equilibration between xenon concentration in arterial blood and at the site of action,[1]; inhalation,1.49 ± 0.04 min
same,HADS_D: patients in whom “clinically severe depression” was absent,"[2]; group 1, after 3 xenon treatments",90.5%
same,HADS_D: patients with “clinically severe depression”,[2]; group 1,2.4%
same,HADS_D: patients in whom “clinically severe depression” was present,"[2]; group 2, after 3 xenon treatments",82.1%
same,HADS_D: patients with “clinically severe depression”,[2]; group 2,46.2%
same,"The frequency of minor panic attacks 6 months after treatment, Mean",[3]; Total (n = 81),.6 times/month
same,"The frequency of minor panic attacks 6 months after treatment, Median",[3]; Total (n = 81),.0 times/month
same,"The frequency of major panic attacks 6 months after treatment, Mean",[3]; Total (n = 81),.0
same,"The frequency of major panic attacks 6 months after treatment, Median",[3]; Total (n = 81),.0
same,"Changes Minor Panic Attacs_V6_V1, Mean",[3]; Total (n = 81),−42.7
same,"Changes Minor Panic Attacs_V6_V1, Median",[3]; Total (n = 81),−55.0
same,"Changes_Major Panic Attacs_V6_V1, Mean",[3]; Total (n = 81),−9.6
same,"Changes_Major Panic Attacs_V6_V1, Median",[3]; Total (n = 81),−7.0
same,“major” panic attacks 6 months after treatment,[3]; both groups,absent
same,panic attacks after the 6th treatment,"[3]; conclusion from HADS_T, CGI-I, CGI-S",complete cessation of panic attacks
same,"The frequency of minor panic attacks 6 months after treatment, Mean",[3]; «Comorbid PD» (n = 39),1 times/month and 1.0 times/month
same,"The frequency of minor panic attacks 6 months after treatment, Median",[3]; «Comorbid PD» (n = 39),.0 times/month
same,"The frequency of major panic attacks 6 months after treatment, Mean",[3]; «Comorbid PD» (n = 39),.0
same,"The frequency of major panic attacks 6 months after treatment, Median",[3]; «Comorbid PD» (n = 39),.0
same,"Changes Minor Panic Attacs_V6_V1, Mean",[3]; «Comorbid PD» (n = 39),−40.7
same,"Changes Minor Panic Attacs_V6_V1, Median",[3]; «Comorbid PD» (n = 39),−40.0
same,"Changes_Major Panic Attacs_V6_V1, Mean",[3]; «Comorbid PD» (n = 39),−11.7
same,"Changes_Major Panic Attacs_V6_V1, Median",[3]; «Comorbid PD» (n = 39),−12.0
same,"The frequency of minor panic attacks 6 months after treatment, Median",[3]; «Pure PD» (n = 42),.0 times/month
same,"The frequency of major panic attacks 6 months after treatment, Mean",[3]; «Pure PD» (n = 42),.0
same,"The frequency of major panic attacks 6 months after treatment, Median",[3]; «Pure PD» (n = 42),.0
same,"Changes Minor Panic Attacs_V6_V1, Mean",[3]; «Pure PD» (n = 42),−44.5
same,"Changes Minor Panic Attacs_V6_V1, Median",[3]; «Pure PD» (n = 42),−55.0
same,"Changes_Major Panic Attacs_V6_V1, Mean",[3]; «Pure PD» (n = 42),−7.7
same,"Changes_Major Panic Attacs_V6_V1, Median",[3]; «Pure PD» (n = 42),−3.0
same,patients dropping out from the study due to side effects,[4]; 5 patients,5.8%
same,tolerability of xenon therapy,"[4]; side effects, were rare",generally well tolerated
same,"CGI-I, V2: Marked deterioration, share of patients",[5],1.2%
same,"CGI-I, V2: Marked improvement, share of patients",[5],12.3%
same,"CGI-I, V2: Minimal deterioration, share of patients",[5],1.2%
same,"CGI-I, V2: Minimal improvement, share of patients",[5],54.3%
same,"CGI-I, V2: No changes, share of patients",[5],30.9%
same,"CGI-I, V3: Marked improvement, share of patients",[5],25.9%
same,"CGI-I, V3: Minimal improvement, share of patients",[5],61.7%
same,"CGI-I, V3: No changes, share of patients",[5],12.3%
same,"CGI-I, V4: Marked improvement, share of patients",[5],54.3%
